Results taken from ChEMBL document CHEMBL3885881, “DrugMatrix”.

Organism: Rattus norvegicus
Experiment: DrugMatrix - Regimen: Daily Repeat
Format: toxicity, organism-based, Sprague-Dawley
Design: regimen Daily Repeat, gender Male, age 6-8 weeks
Details: in vivo, sc, route subcutaneous, […]; for ABSOLUTE BASOPHIL / ABSOLUTE EOSINOPHIL / ABSOLUTE LYMPHOCYTE / ABSOLUTE MONOCYTE / ABSOLUTE SEGMENTED NEUTROPHIL / BASOPHIL / EOSINOPHIL / ERYTHROCYTE COUNT / HEMATOCRIT / HEMOGLOBIN / LEUKOCYTE COUNT / LYMPHOCYTE / MEAN CORPUSCULAR HEMOGLOBIN / MEAN CORPUSCULAR HEMOGLOBIN CONCENTRATION / MEAN CORPUSCULAR VOLUME / MONOCYTE / NEUTROPHIL / NUCLEATED RED BLOOD CELLS / PLATELET COUNT: tissue Blood; for ALANINE AMINOTRANSFERASE / ALKALINE PHOSPHATASE / ASPARTATE AMINOTRANSFERASE / BLOOD UREA NITROGEN / CARBON DIOXIDE / CHLORIDE / CHOLESTEROL / CREATINE PHOSPHOKINASE / CREATININE / GLUCOSE / LACTATE DEHYDROGENASE / LIPASE / PHOSPHORUS / POTASSIUM / SODIUM / TOTAL BILIRUBIN / TOTAL PROTEIN / URIC ACID: tissue Plasma
[1] = 0 mg/kg, 72 h, dose level Control, time 3 day
[2] = 0 mg/kg, 120 h, dose level Control, time 5 day
[3] = 17 mg/kg, 72 h, dose level Low, time 3 day

**Q.** With `CC(C)Cn1cnc2c(N)nc3ccccc3c21` [IMIQUIMOD] as the compound, how does the “ABSOLUTE BASOPHIL” value [1] read?
**A.** 0 CELLS/uL

**Q.** What about the “ABSOLUTE EOSINOPHIL” value [1] of the same compound?
**A.** 42.67 CELLS/uL

**Q.** And the “ABSOLUTE LYMPHOCYTE” value [1]?
**A.** 10202 CELLS/uL

**Q.** What about the “ABSOLUTE MONOCYTE” value [1] of the same compound?
**A.** 261.5 CELLS/uL

**Q.** And the “ABSOLUTE SEGMENTED NEUTROPHIL” value [1]?
**A.** 2193.83 CELLS/uL

**Q.** And the BASOPHIL [1]?
**A.** 0%

**Q.** And the EOSINOPHIL [1]?
**A.** 0.33%

**Q.** And the “ERYTHROCYTE COUNT” value [1]?
**A.** 5.63 x10E6/uL

**Q.** And the HEMATOCRIT [1]?
**A.** 35.35%

**Q.** And the HEMOGLOBIN [1]?
**A.** 13.07 G/DL

**Q.** What about the “LEUKOCYTE COUNT” value [1] of the same compound?
**A.** 12.7 x10E3/uL

**Q.** And the LYMPHOCYTE [1]?
**A.** 81.17%

**Q.** What about the “MEAN CORPUSCULAR HEMOGLOBIN” value [1] of the same compound?
**A.** 23.23 pg

**Q.** What about the “MEAN CORPUSCULAR HEMOGLOBIN CONCENTRATION” value [1] of the same compound?
**A.** 36.97 G/DL

**Q.** And the “MEAN CORPUSCULAR VOLUME” value [1]?
**A.** 62.82 fL

**Q.** What about the MONOCYTE [1] of the same compound?
**A.** 2%

**Q.** What about the NEUTROPHIL [1] of the same compound?
**A.** 16.5%

**Q.** And the “NUCLEATED RED BLOOD CELLS” value [1]?
**A.** 0 /100WBC

**Q.** And the “PLATELET COUNT” value [1]?
**A.** 1180.33 x10E3/uL

**Q.** And the “ALANINE AMINOTRANSFERASE” value [1]?
**A.** 48.67 u/L

**Q.** What about the “ALKALINE PHOSPHATASE” value [1] of the same compound?
**A.** 360.67 u/L

**Q.** And the “ASPARTATE AMINOTRANSFERASE” value [1]?
**A.** 85.5 u/L

**Q.** And the “BLOOD UREA NITROGEN” value [1]?
**A.** 17.83 mg/dL

**Q.** And the “CARBON DIOXIDE” value [1]?
**A.** 26.17 mmol/L

**Q.** What about the CHLORIDE [1] of the same compound?
**A.** 101.83 MEQ/L

**Q.** What about the CHOLESTEROL [1] of the same compound?
**A.** 71 mg/dL

**Q.** And the “CREATINE PHOSPHOKINASE” value [1]?
**A.** 515.17 u/L

**Q.** And the CREATININE [1]?
**A.** 0.22 mg/dL

**Q.** What about the GLUCOSE [1] of the same compound?
**A.** 192.5 mg/dL

**Q.** What about the “LACTATE DEHYDROGENASE” value [1] of the same compound?
**A.** 214.67 u/L

**Q.** What about the LIPASE [1] of the same compound?
**A.** 8.5 u/L

**Q.** What about the PHOSPHORUS [1] of the same compound?
**A.** 12.95 mg/dL

**Q.** What about the POTASSIUM [1] of the same compound?
**A.** 6.39 MEQ/L

**Q.** What about the SODIUM [1] of the same compound?
**A.** 142.38 MEQ/L

**Q.** And the “TOTAL BILIRUBIN” value [1]?
**A.** 0.18 mg/dL

**Q.** And the “TOTAL PROTEIN” value [1]?
**A.** 5.95 G/DL

**Q.** What about the “URIC ACID” value [1] of the same compound?
**A.** 1.83 mg/dL

**Q.** What about the “ABSOLUTE BASOPHIL” value [2] of the same compound?
**A.** 0 CELLS/uL

**Q.** And the “ABSOLUTE EOSINOPHIL” value [2]?
**A.** 188.5 CELLS/uL

**Q.** What about the “ABSOLUTE LYMPHOCYTE” value [2] of the same compound?
**A.** 12360.83 CELLS/uL

**Q.** What about the “ABSOLUTE MONOCYTE” value [2] of the same compound?
**A.** 64.33 CELLS/uL

**Q.** And the “ABSOLUTE SEGMENTED NEUTROPHIL” value [2]?
**A.** 1986.33 CELLS/uL

**Q.** What about the BASOPHIL [2] of the same compound?
**A.** 0%

**Q.** And the EOSINOPHIL [2]?
**A.** 1.33%

**Q.** And the “ERYTHROCYTE COUNT” value [2]?
**A.** 5.52 x10E6/uL

**Q.** What about the HEMATOCRIT [2] of the same compound?
**A.** 35.82%

**Q.** And the HEMOGLOBIN [2]?
**A.** 13.25 G/DL

**Q.** And the “LEUKOCYTE COUNT” value [2]?
**A.** 14.6 x10E3/uL

**Q.** And the LYMPHOCYTE [2]?
**A.** 84.5%

**Q.** What about the “MEAN CORPUSCULAR HEMOGLOBIN” value [2] of the same compound?
**A.** 24.05 pg

**Q.** And the “MEAN CORPUSCULAR HEMOGLOBIN CONCENTRATION” value [2]?
**A.** 36.98 G/DL

**Q.** What about the “MEAN CORPUSCULAR VOLUME” value [2] of the same compound?
**A.** 64.97 fL

**Q.** What about the MONOCYTE [2] of the same compound?
**A.** 0.5%

**Q.** And the NEUTROPHIL [2]?
**A.** 13.67%

**Q.** And the “NUCLEATED RED BLOOD CELLS” value [2]?
**A.** 0 /100WBC

**Q.** What about the “PLATELET COUNT” value [2] of the same compound?
**A.** 1297.83 x10E3/uL

**Q.** And the “ALANINE AMINOTRANSFERASE” value [2]?
**A.** 51.17 u/L

**Q.** What about the “ALKALINE PHOSPHATASE” value [2] of the same compound?
**A.** 393.17 u/L

**Q.** What about the “ASPARTATE AMINOTRANSFERASE” value [2] of the same compound?
**A.** 111 u/L

**Q.** And the “BLOOD UREA NITROGEN” value [2]?
**A.** 18.17 mg/dL

**Q.** What about the “CARBON DIOXIDE” value [2] of the same compound?
**A.** 25 mmol/L

**Q.** And the CHLORIDE [2]?
**A.** 105.17 MEQ/L

**Q.** What about the CHOLESTEROL [2] of the same compound?
**A.** 65.5 mg/dL

**Q.** And the “CREATINE PHOSPHOKINASE” value [2]?
**A.** 911.5 u/L

**Q.** And the CREATININE [2]?
**A.** 0.21 mg/dL

**Q.** And the GLUCOSE [2]?
**A.** 183 mg/dL

**Q.** And the “LACTATE DEHYDROGENASE” value [2]?
**A.** 189 u/L

**Q.** And the LIPASE [2]?
**A.** 8.33 u/L

**Q.** What about the PHOSPHORUS [2] of the same compound?
**A.** 12.78 mg/dL

**Q.** And the POTASSIUM [2]?
**A.** 6.05 MEQ/L

**Q.** What about the SODIUM [2] of the same compound?
**A.** 144.57 MEQ/L

**Q.** What about the “TOTAL BILIRUBIN” value [2] of the same compound?
**A.** 0.25 mg/dL

**Q.** And the “TOTAL PROTEIN” value [2]?
**A.** 5.83 G/DL

**Q.** What about the “URIC ACID” value [2] of the same compound?
**A.** 1.58 mg/dL

**Q.** What about the “ABSOLUTE BASOPHIL” value [3] of the same compound?
**A.** 0 CELLS/uL

**Q.** What about the “ABSOLUTE EOSINOPHIL” value [3] of the same compound?
**A.** 0 CELLS/uL

**Q.** And the “ABSOLUTE LYMPHOCYTE” value [3]?
**A.** 10952 CELLS/uL

**Q.** And the “ABSOLUTE MONOCYTE” value [3]?
**A.** 127.67 CELLS/uL

**Q.** And the “ABSOLUTE SEGMENTED NEUTROPHIL” value [3]?
**A.** 1687 CELLS/uL

**Q.** And the BASOPHIL [3]?
**A.** 0%

**Q.** What about the EOSINOPHIL [3] of the same compound?
**A.** 0%

**Q.** And the “ERYTHROCYTE COUNT” value [3]?
**A.** 5.23 x10E6/uL

**Q.** And the HEMATOCRIT [3]?
**A.** 32.37%

**Q.** What about the HEMOGLOBIN [3] of the same compound?
**A.** 11.97 G/DL

**Q.** And the “LEUKOCYTE COUNT” value [3]?
**A.** 12.77 x10E3/uL

**Q.** What about the LYMPHOCYTE [3] of the same compound?
**A.** 86.33%

**Q.** What about the “MEAN CORPUSCULAR HEMOGLOBIN” value [3] of the same compound?
**A.** 22.9 pg

**Q.** What about the “MEAN CORPUSCULAR HEMOGLOBIN CONCENTRATION” value [3] of the same compound?
**A.** 37 G/DL

**Q.** And the “MEAN CORPUSCULAR VOLUME” value [3]?
**A.** 61.93 fL

**Q.** And the MONOCYTE [3]?
**A.** 1%

**Q.** What about the NEUTROPHIL [3] of the same compound?
**A.** 12.67%

**Q.** What about the “NUCLEATED RED BLOOD CELLS” value [3] of the same compound?
**A.** 0 /100WBC

**Q.** And the “PLATELET COUNT” value [3]?
**A.** 1138.33 x10E3/uL

**Q.** What about the “ALANINE AMINOTRANSFERASE” value [3] of the same compound?
**A.** 57.67 u/L

**Q.** What about the “ALKALINE PHOSPHATASE” value [3] of the same compound?
**A.** 333.67 u/L

**Q.** And the “ASPARTATE AMINOTRANSFERASE” value [3]?
**A.** 91.67 u/L

**Q.** What about the “BLOOD UREA NITROGEN” value [3] of the same compound?
**A.** 17.33 mg/dL

**Q.** And the “CARBON DIOXIDE” value [3]?
**A.** 27 mmol/L

**Q.** And the CHLORIDE [3]?
**A.** 104.67 MEQ/L

**Q.** And the CHOLESTEROL [3]?
**A.** 71 mg/dL

**Q.** What about the “CREATINE PHOSPHOKINASE” value [3] of the same compound?
**A.** 483 u/L

**Q.** And the CREATININE [3]?
**A.** 0.24 mg/dL

**Q.** And the GLUCOSE [3]?
**A.** 177 mg/dL

**Q.** What about the “LACTATE DEHYDROGENASE” value [3] of the same compound?
**A.** 117.33 u/L

**Q.** What about the LIPASE [3] of the same compound?
**A.** 7.67 u/L

**Q.** What about the PHOSPHORUS [3] of the same compound?
**A.** 13 mg/dL

**Q.** What about the POTASSIUM [3] of the same compound?
**A.** 6.18 MEQ/L

**Q.** And the SODIUM [3]?
**A.** 146.27 MEQ/L

**Q.** And the “TOTAL BILIRUBIN” value [3]?
**A.** 0.17 mg/dL

**Q.** And the “TOTAL PROTEIN” value [3]?
**A.** 5.53 G/DL

**Q.** And the “URIC ACID” value [3]?
**A.** 1.6 mg/dL
